Laboratory results from patent US8088757B2, “Betulinol derivatives as anti-cancer agents” (priority 2004, dated 2012).
Where two headings read alike, the source gives them in different places.

Experiments:
[1] = system: CAKI-1; experiment: In vitro cytotoxicity, Renal (2), CAKI-1; assay type: cell-based, human
Protocol: (§1) However, these compounds were not tested on prostate cancer LNCaP cell line by NCI. […] The anti-tumor activity of the compounds was determined at three doses and the total growth inhibition kill effect as pertinent of the control at 24, 48, and 72 hours as presented in Table 11.

[2] = system: LNCaP; experiment: MTT cytotoxicity assay, LNCaP prostate cancer cells; assay type: cell-based, human
Protocol: The human prostate cancer LNCaP, PC-3, and DU-145 cell lines, as well as human fibroblast cell line, were obtained from the American Type Culture Collection (“ATCC”) and maintained in RPMI-1640, F-12k, and MEM mediums, respectively, supplemented with 10% FBS. Cell lines were maintained at 37° C. under a humidified atmosphere and 5% CO2 for testing of the cytotoxicity of betulinol derivatives. The cytotoxicity assay was performed using MTT assay according to the instructions of ATCC protocol. Cells 1×10^5 in 0.1 ml/well were plated in 96-well culture plates (Costar) and incubated with a different dilution of betulinol derivatives for 24, 48, and 72 hours. Ten μl of 3-[4,5-dimethylthiazol-2-yl]-2,5 diphenyl tetrazolium bromide was added into each well at the end of each incubation period. The reaction product, formazan, was dissolved in the detergent, and the absorbance was read at 540 nm (Ref).
as §1

[3] = system: RXF 393; experiment: In vitro cytotoxicity, Renal (2), RXF 393; assay type: cell-based, human
[4] = system: NCI-H460; experiment: In vitro cytotoxicity, Lung (2), NCI-H460; assay type: cell-based, human
Protocol: as §1

[5] = system: MCF7; experiment: In vitro cytotoxicity, Breast (2), MCF7; assay type: cell-based, human
[6] = system: MALME-3M; experiment: In vitro cytotoxicity, Melanoma (2), MALME-3M; assay type: cell-based, human
[7] = system: T-47d; experiment: In vitro cytotoxicity, Breast (2), T-47d; assay type: cell-based, human
Protocol: as §1

[8] = system: U251; experiment: In vitro cytotoxicity, CNS (2), U251; assay type: cell-based, human
[9] = system: NCI-H322M; experiment: In vitro cytotoxicity, Lung (2), NCI-H322M; assay type: cell-based, human
Protocol: as §1

[10] = system: SF-268; experiment: In vitro cytotoxicity, CNS (2), SF-268; assay type: cell-based, human
[11] = system: OVACR-3; experiment: In vitro cytotoxicity, Ovarian (2), OVACR-3; assay type: cell-based, human
Protocol: as §1

[12] = system: DU-145; experiment: In vitro cytotoxicity, Prostate (2), DU-145; assay type: cell-based, human
[13] = system: TK-10; experiment: In vitro cytotoxicity, Renal (2), TK-10; assay type: cell-based, human
Protocol: as §1

[14] = system: PC-3; experiment: In vitro cytotoxicity, Prostate (2), PC-3; assay type: cell-based, human
[15] = system: OVCAR-5; experiment: In vitro cytotoxicity, Ovarian (2), OVCAR-5; assay type: cell-based, human
Protocol: as §1

[16] = system: HOP-92; experiment: In vitro cytotoxicity, Lung (2), HOP-92; assay type: cell-based, human
Protocol: as §1

[17] = Tolerability of solubilized drug in mice with prostate cancer cell xenografts; assay type: in vivo; conditions: 22% ethanol, 2×10^−3 mol per liter of betulonic acid
[18] = system: 184B5/HER; experiment: In vitro cytotoxicity, Breast (1), 184B5/HER; assay type: cell-based; conditions: 1 × 10^−4 M
[19] = Homo sapiens, 24 hours, 2.5 × 10^−5 M, read-out: Growth Inhibition %
[20] = Homo sapiens, 24 hours, 2.5 × 10^−6 M, read-out: Growth Inhibition %
[21] = Homo sapiens, 24 hours, 2.5 × 10^−7 M, read-out: Growth Inhibition %
[22] = Homo sapiens, 48 hours, 2.5 × 10^−5 M, read-out: Growth Inhibition %
[23] = Homo sapiens, 48 hours, 2.5 × 10^−6 M, read-out: Growth Inhibition %
[24] = Homo sapiens, 48 hours, 2.5 × 10^−7 M, read-out: Growth Inhibition %

With `C=C(C)[C@@H]1CC[C@]2(COC(C)=O)CC[C@]3(C)[C@H](CC[C@@H]4[C@@]5(C)CC[C@H](OC(C)=O)C(C)(C)[C@@H]5CC[C@]43C)[C@@H]12` [Compound 6, Betulin Diacetate] the “Percent Killed” value ([1]; CAKI-1, 1 × 10^−4 M) was 100%, the “Percent Killed” value ([1]; CAKI-1, 1 × 10^−5 M) was 100% and the “Percent Killed” value ([1]; CAKI-1, 1 × 10^−6 M) was 100%. It also gave an inhibition at 25 µM [2, 19] of 17%, an inhibition at 2.5 µM [2, 20] of 18.7% and an inhibition at 0.25 µM [2, 21] of 0%. For the same compound, the inhibition at 25 µM [2, 22] was 56.6%, the inhibition at 2.5 µM [2, 23] was 46.7% and the inhibition at 0.25 µM [2, 24] was 27.9%. The “Percent Killed” value ([3]; RXF 393, 1 × 10^−4 M) was 100%, the “Percent Killed” value ([3]; RXF 393, 1 × 10^−5 M) was 100% and the “Percent Killed” value ([3]; RXF 393, 1 × 10^−6 M) was 100%. The “Percent Killed” value ([3]; RXF 393, 1 × 10^−7 M) was 97%, the “Percent Killed” value ([3]; RXF 393, 1 × 10^−8 M) was 15% and the “Percent Killed” value ([4]; NCI-H460, 1 × 10^−4 M) was 100%. The “Percent Killed” value ([4]; NCI-H460, 1 × 10^−5 M) was 100%, the “Percent Killed” value ([4]; NCI-H460, 1 × 10^−6 M) was 100% and the “Percent Killed” value ([4]; NCI-H460, 1 × 10^−7 M) was 25%. The “Percent Killed” value ([5]; MCF7, 1 × 10^−4 M) was 100%, the “Percent Killed” value ([5]; MCF7, 1 × 10^−5 M) was 100% and the “Percent Killed” value ([5]; MCF7, 1 × 10^−6 M) was 100%. For the same compound, the “Percent Killed” value ([5]; MCF7, 1 × 10^−7 M) was 100%, the “Percent Killed” value ([6]; 1 × 10^−4 M) was 100% and the “Percent Killed” value ([6]; 1 × 10^−5 M) was 100%. For the same compound, the “Percent Killed” value ([6]; 1 × 10^−6 M) was 100%, the “Percent Killed” value ([6]; 1 × 10^−7 M) was 100% and the “Percent Killed” value ([6]; 1 × 10^−8 M) was 98%. For the same compound, the “Percent Killed” value ([7]; 1 × 10^−4 M) was 100%, the “Percent Killed” value ([7]; 1 × 10^−5 M) was 100% and the “Percent Killed” value ([7]; 1 × 10^−6 M) was 100%. For the same compound, the “Percent Killed” value ([7]; 1 × 10^−7 M) was 23%, the “Percent Killed” value ([8]; U251, 1 × 10^−4 M) was 100% and the “Percent Killed” value ([8]; U251, 1 × 10^−5 M) was 100%. For the same compound, the “Percent Killed” value ([8]; U251, 1 × 10^−6 M) was 100%, the “Percent Killed” value ([8]; U251, 1 × 10^−7 M) was 100% and the “Percent Killed” value ([9]; 1 × 10^−4 M) was 100%. For the same compound, the “Percent Killed” value ([9]; 1 × 10^−5 M) was 100%, the “Percent Killed” value ([9]; 1 × 10^−6 M) was 100% and the “Percent Killed” value ([10]; SF-268, 1 × 10^−4 M) was 100%. For the same compound, the “Percent Killed” value ([10]; SF-268, 1 × 10^−5 M) was 100%, the “Percent Killed” value ([10]; SF-268, 1 × 10^−6 M) was 100% and the “Percent Killed” value ([10]; SF-268, 1 × 10^−7 M) was 75%. For the same compound, the “Percent Killed” value ([10]; SF-268, 1 × 10^−8 M) was 15%, the “Percent Killed” value ([11]; OVACR-3, 1 × 10^−4 M) was 100% and the “Percent Killed” value ([11]; OVACR-3, 1 × 10^−5 M) was 100%. The “Percent Killed” value ([11]; OVACR-3, 1 × 10^−6 M) was 96%, the “Percent Killed” value ([12]; DU-145, 1 × 10^−4 M) was 100% and the “Percent Killed” value ([12]; DU-145, 1 × 10^−5 M) was 100%. For the same compound, the “Percent Killed” value ([12]; DU-145, 1 × 10^−6 M) was 100%, the “Percent Killed” value ([12]; DU-145, 1 × 10^−7 M) was 100% and the “Percent Killed” value ([12]; DU-145, 1 × 10^−8 M) was 27%. The “Percent Killed” value ([13]; TK-10, 1 × 10^−4 M) was 100%, the “Percent Killed” value ([13]; TK-10, 1 × 10^−5 M) was 100% and the “Percent Killed” value ([13]; TK-10, 1 × 10^−6 M) was 49%. The “Percent Killed” value ([14]; PC-3, 1 × 10^−4 M) was 25%, the “Percent Killed” value ([14]; PC-3, 1 × 10^−5 M) was 15% and the “Percent Killed” value ([15]; OVCAR-5, 1 × 10^−4 M) was 100%. The “Percent Killed” value ([15]; OVCAR-5, 1 × 10^−5 M) was 100%, the “Percent Killed” value ([15]; OVCAR-5, 1 × 10^−6 M) was 100% and the “Percent Killed” value ([16]; HOP-92, 1 × 10^−4 M) was 100%. The “Percent Killed” value ([16]; HOP-92, 1 × 10^−5 M) was 100% and the “Percent Killed” value ([16]; HOP-92, 1 × 10^−6 M) was 100%.

For `C=C(C)C1CCC2(C(=O)NCCCCC(NC(=O)OC(C)(C)C)C(=O)O)CC[C@]3(C)[C@H](CC[C@@H]4[C@@]5(C)CCC(=O)C(C)(C)[C@@H]5CC[C@]43C)C12` (stereo partly drawn) [Boc-Monomer], the tolerability [17] was “well tolerated”.

For `C=C(C)[C@@H]1CC[C@]2(C(=O)O)CC[C@]3(C)[C@H](CC[C@@H]4[C@@]5(C)CC[C@H](O)C(C)(C)[C@@H]5CC[C@]43C)[C@@H]12` [Compound 2, Betulinic Acid], the “Growth Inhibition %” value ([2]; 24 hours, 2.5 × 10^−5 M) was 41.0%.

`C=C(C)C1CCC2(CO)CC[C@]3(C)[C@H](CC[C@@H]4[C@@]5(C)CCC(O)C(C)(C)[C@@H]5CC[C@]43C)C12` (stereo partly drawn) [Compound 1, Betulinol] showed an inhibition at 25 µM [2, 19] of 47.2%, an inhibition at 2.5 µM [2, 20] of 11.9% and an inhibition at 0.25 µM [2, 21] of 8.24%. It also gave an inhibition at 25 µM [2, 22] of 31%, an inhibition at 2.5 µM [2, 23] of 13.8% and an inhibition at 0.25 µM [2, 24] of 10.6%.

Work on `C=C(C)C1CCC2(COC)CCC3(C)C(CCC4C5(C)CCC(OC)C(C)(C)C5CCC43C)C12` (stereo not drawn) [Compound 7, Betulin Dimethyl ether (Cornelon)] yielded an inhibition at 25 µM [2, 19] of 45%, an inhibition at 2.5 µM [2, 20] of 18.1% and an inhibition at 0.25 µM [2, 21] of 7.76%. It also gave an inhibition at 25 µM [2, 22] of 50.9%, an inhibition at 2.5 µM [2, 23] of 44% and an inhibition at 0.25 µM [2, 24] of 27.9%. For the same compound, the “Percent Killed” value ([4]; NCI-H460, 1 × 10^−4 M) was 80%, the “Percent Killed” value ([5]; MCF7, 1 × 10^−4 M) was 97% and the “Percent Killed” value ([10]; SF-268, 1 × 10^−4 M) was 100%. For the same compound, the “Percent Killed” value [18] was “Toxic”.

In the case of `C=C(C)[C@@H]1CC[C@]2(C=O)CC[C@]3(C)[C@H](CC[C@@H]4[C@@]5(C)CC[C@H](O)C(C)(C)[C@@H]5CC[C@]43C)[C@@H]12` [Compound 3, Betulin Aldehyde], the “Growth Inhibition %” value ([2]; 24 hours, 2.5 × 10^−6 M) is reported as 11.0%.

With `C=C(C)[C@@H]1CC[C@]2(CO)CC[C@]3(C)[C@H](CC[C@@H]4[C@@]5(C)CC[C@H](OC(C)=O)C(C)(C)[C@@H]5CC[C@]43C)[C@@H]12` [Compound 8, 3-Acetoxy Betulin] the “Growth Inhibition %” value ([2]; 24 hours, 2.5 × 10^−7 M) was 0%.

For `C=C(C)C1CCC2(C=O)CCC3(C)C(CCC4C5(C)CCC(=O)C(C)(C)C5CCC43C)C12` (stereo not drawn) [Compound 5, Betulon Aldehyde], the inhibition at 25 µM [2, 19] was 19%, the inhibition at 2.5 µM [2, 20] was 21.9% and the inhibition at 0.25 µM [2, 21] was 6.34%. It also gave an inhibition at 25 µM [2, 22] of 40.2%, an inhibition at 2.5 µM [2, 23] of 47.4% and an inhibition at 0.25 µM [2, 24] of 29.8%. The “Percent Killed” value ([4]; NCI-H460, 1 × 10^−4 M) was 89%, the “Percent Killed” value ([5]; MCF7, 1 × 10^−4 M) was 68% and the “Percent Killed” value ([10]; SF-268, 1 × 10^−4 M) was 27%.

For `C=C(C)C1CCC2(C(=O)NCCCCC(NC(=O)OC(C)(C)C)C(=O)OC)CC[C@]3(C)[C@H](CC[C@@H]4[C@@]5(C)CCC(=O)C(C)(C)[C@@H]5CC[C@]43C)C12` (stereo partly drawn) [Monomer], the cells killed ([2]; 1×10^−4 M) was about 80% and the inhibition at 100 µM ([2]; Homo sapiens, 48 hours, 1 × 10^−4 M, read-out: Growth Inhibition %) was 82.8 ± 14.3%.
